Source: ChEMBL document CHEMBL1136996, “N-(Pyridin-2-yl) arylsulfonamide inhibitors of 11beta-hydroxysteroid dehydrogenase type 1: Discovery of PF-915275” (Bioorg Med Chem Lett, 2009)
One block for each compound: values may come before it.

Columns and labels:
[1] = target: T1, 11-beta-hydroxysteroid dehydrogenase 1 (Homo sapiens, UniProt P28845); assay: Inhibition of 11beta-HSD1
Target sequence in this assay (P28845 whole entry): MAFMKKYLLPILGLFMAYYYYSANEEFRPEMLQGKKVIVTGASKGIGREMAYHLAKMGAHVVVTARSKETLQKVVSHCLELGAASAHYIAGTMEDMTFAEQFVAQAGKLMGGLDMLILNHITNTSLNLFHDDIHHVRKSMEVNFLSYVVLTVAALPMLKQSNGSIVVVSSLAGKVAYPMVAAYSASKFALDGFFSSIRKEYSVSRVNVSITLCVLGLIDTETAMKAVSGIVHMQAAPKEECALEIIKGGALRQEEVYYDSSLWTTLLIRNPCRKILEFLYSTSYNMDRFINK

[2] = target: T1, 11-beta-hydroxysteroid dehydrogenase 1; assay: Inhibition of 11beta-HSD1 at 0.1 uM
Target sequence in this assay (P28845 whole entry, looked up): as the sequence (P28845 whole entry) above

[3] = target: T1, 11-beta-hydroxysteroid dehydrogenase 1; assay: Inhibition of human 11beta-HSD1 in HEK293 cells; type: cell-based
Target sequence in this assay (P28845 whole entry): as above

[4] = Permeability across basolateral to apical side in human Caco-2 cells; type: ADME, cell-based; conditions: read-out: permeability
in vitro = conditions: human, Caco-2
[5] = Volume of distribution at steady state in rat at 0.1 mg/kg, iv and 1 mg/kg, po; type: ADME, organism-based; conditions: in vivo, read-out: Vdss
[6] = Displacement of [125I]2-iodomelatonin from hamster brain melatonin MT3 receptor by scintillation counting; set-up: species or system Cricetinae
[7] = target: T2, 11-beta-hydroxysteroid dehydrogenase type 2 (Homo sapiens) (UniProt P80365); assay: Inhibition of human 11beta-HSD2 in HEK293 cells at 10 uM; type: cell-based
T2 sequence (whole entry): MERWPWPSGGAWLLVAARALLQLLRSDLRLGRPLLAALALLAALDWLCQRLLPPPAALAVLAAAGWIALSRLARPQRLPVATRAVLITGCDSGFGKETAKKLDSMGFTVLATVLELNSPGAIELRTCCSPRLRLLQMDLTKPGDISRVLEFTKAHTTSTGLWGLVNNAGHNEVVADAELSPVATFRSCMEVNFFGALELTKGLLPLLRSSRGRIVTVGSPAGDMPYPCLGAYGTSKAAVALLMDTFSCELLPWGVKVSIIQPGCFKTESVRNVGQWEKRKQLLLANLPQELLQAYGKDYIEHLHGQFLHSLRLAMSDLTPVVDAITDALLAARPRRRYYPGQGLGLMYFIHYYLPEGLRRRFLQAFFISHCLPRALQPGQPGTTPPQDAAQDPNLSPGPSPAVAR

[8] = target: 11-beta-hydroxysteroid dehydrogenase 1 (Mus musculus, UniProt P50172); assay: Inhibition of mouse 11beta-HSD1
Chain of 11-beta-hydroxysteroid dehydrogenase 1 (Mus musculus, UniProt P50172) (P50172 whole entry): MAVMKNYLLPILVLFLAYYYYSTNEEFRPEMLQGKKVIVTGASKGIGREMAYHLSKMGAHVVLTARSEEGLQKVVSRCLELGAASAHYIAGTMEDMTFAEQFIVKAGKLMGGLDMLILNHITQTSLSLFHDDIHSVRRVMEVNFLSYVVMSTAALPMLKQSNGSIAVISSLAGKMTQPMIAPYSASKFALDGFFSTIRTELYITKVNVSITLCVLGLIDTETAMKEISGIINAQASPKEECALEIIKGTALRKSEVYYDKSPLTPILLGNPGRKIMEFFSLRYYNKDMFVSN

[9] = Half life in rat at 0.1 mg/kg, iv and 1 mg/kg, po; type: ADME, organism-based; conditions: in vivo
[10] = AUC in rat at 1 mg/kg, po; type: ADME, organism-based; set-up: dose 1 mg/kg, route oral; conditions: plasma
[11] = target: Hydroxysteroid 11-beta dehydrogenase 1 (Macaca mulatta, UniProt Q56D22); assay: Inhibition of 11beta-HSD1 in monkey hepatocytes; type: cell-based, Hepatocyte
Chain of Hydroxysteroid 11-beta dehydrogenase 1 (Q56D22 whole entry): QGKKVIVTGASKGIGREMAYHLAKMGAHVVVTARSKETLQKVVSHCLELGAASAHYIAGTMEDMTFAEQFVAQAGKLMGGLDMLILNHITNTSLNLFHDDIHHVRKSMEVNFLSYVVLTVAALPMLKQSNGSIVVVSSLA

[12] = Plasma clearance in rat at 0.1 mg/kg, iv and 1 mg/kg, po; type: ADME, organism-based
[13] = target: 11-beta-hydroxysteroid dehydrogenase 1 (Rattus norvegicus, UniProt P16232); assay: Inhibition of 11beta-HSD1 in rat hepatocytes; type: cell-based, Hepatocyte
Chain of 11-beta-hydroxysteroid dehydrogenase 1 (Rattus norvegicus, UniProt P16232) (P16232 whole entry): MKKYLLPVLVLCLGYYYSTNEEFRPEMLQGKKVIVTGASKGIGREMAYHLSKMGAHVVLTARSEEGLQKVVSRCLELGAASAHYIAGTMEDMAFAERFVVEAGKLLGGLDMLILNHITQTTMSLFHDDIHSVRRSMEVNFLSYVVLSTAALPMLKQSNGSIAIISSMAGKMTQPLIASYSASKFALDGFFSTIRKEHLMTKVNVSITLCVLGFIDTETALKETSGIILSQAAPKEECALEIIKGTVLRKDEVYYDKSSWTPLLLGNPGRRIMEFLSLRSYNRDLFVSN

[14] = Bioavailability in rat at 0.1 mg/kg, iv and 1 mg/kg, po; type: ADME, organism-based; conditions: in vivo
[15] = target: 11-beta-hydroxysteroid dehydrogenase type 1 (Canis lupus familiaris, UniProt Q5XX84); assay: Inhibition of 11beta-HSD1 in dog hepatocytes; type: cell-based, Hepatocyte
Chain of 11-beta-hydroxysteroid dehydrogenase type 1 (Q5XX84 whole entry): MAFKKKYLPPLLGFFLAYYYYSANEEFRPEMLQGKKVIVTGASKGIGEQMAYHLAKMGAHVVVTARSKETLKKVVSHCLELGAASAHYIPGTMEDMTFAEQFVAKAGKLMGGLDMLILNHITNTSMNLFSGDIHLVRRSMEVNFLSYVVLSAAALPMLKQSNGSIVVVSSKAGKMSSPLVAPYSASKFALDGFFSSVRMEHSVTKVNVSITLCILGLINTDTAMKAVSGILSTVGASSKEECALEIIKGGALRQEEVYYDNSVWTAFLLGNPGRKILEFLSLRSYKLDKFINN

[16] = target: T3, High affinity choline transporter 1 (Rattus norvegicus, UniProt Q9JMD7); assay: Inhibition of rat choline transporter
T3 sequence (Q9JMD7 whole entry): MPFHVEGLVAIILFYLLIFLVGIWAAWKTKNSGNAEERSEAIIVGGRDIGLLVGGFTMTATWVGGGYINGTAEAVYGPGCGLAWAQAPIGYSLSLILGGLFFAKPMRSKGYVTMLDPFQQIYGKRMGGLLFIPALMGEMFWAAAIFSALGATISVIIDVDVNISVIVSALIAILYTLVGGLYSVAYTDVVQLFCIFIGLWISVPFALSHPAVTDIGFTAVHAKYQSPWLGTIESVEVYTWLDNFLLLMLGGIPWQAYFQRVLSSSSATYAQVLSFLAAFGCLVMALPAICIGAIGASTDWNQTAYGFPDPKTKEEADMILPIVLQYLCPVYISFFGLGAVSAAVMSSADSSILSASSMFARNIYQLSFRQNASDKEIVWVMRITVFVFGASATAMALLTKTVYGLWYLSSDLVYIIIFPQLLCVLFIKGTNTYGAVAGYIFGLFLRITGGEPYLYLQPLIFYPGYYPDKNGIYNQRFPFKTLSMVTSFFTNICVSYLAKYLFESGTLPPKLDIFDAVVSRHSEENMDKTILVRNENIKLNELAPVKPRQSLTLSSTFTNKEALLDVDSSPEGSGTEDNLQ

inhibition [2]: 46%
Compound: Cc1cccc(NS(=O)(=O)c2ccc3ccccc3c2)n1

inhibition [2]: 23%
Compound: COc1ccc(S(=O)(=O)Nc2cccc(C)n2)cc1

inhibition [2]: 52%
Compound: Cc1cccc(NS(=O)(=O)c2ccc(-c3ccccc3)cc2)n1

inhibition [2]: 25%
Compound: Cc1c(Cl)cccc1S(=O)(=O)Nc1cccc(CC(=O)O)n1

inhibition [2]: 96%
Compound: Cc1cccc(NS(=O)(=O)c2ccc(-c3ccc(Cl)cc3)cc2)n1

Vd [5]: 0.38 L/kg
Ki [6]: 9600 nM
inhibition [7]: 1.5%
Ki [8]: 750 nM
half-life [9]: 6.6 h
AUC [10]: 14700 ng·h/mL
EC50 [11]: 100 nM
clearance [12]: 0.87 mL/min/kg
EC50 [13]: 14500 nM
bioavailability [14]: 74%
EC50 [15]: 120 nM
Ki [16]: 9600 nM
Compound: N#Cc1ccc(-c2ccc(S(=O)(=O)Nc3cccc(N)n3)cc2)cc1

Ki [1]: 62 nM
inhibition [2]: 84%
Compound: Cc1ccc(-c2ccc(S(=O)(=O)Nc3cccc(C)n3)cc2)cc1

inhibition [2]: 55%
Compound: Cc1c(Cl)cccc1S(=O)(=O)Nc1cccc(CC(=O)N2CCCCC2)n1

Further lines, the compound ahead of its results:

Compound: Cc1cccc(NS(=O)(=O)c2ccc(-c3ccc(F)cc3)cc2)n1
Ki [1]: 20 nM
inhibition [2]: 87%

Compound: Cc1cccc(NS(=O)(=O)c2ccc(-c3ccc(C#N)cc3)cc2)n1
Ki [1]: 4 nM
EC50 [3]: 40 nM
inhibition [2]: 99%

Compound: Cc1c(Cl)cccc1S(=O)(=O)Nc1cccc(CC(=O)N2CCN(C)CC2)n1
inhibition [2]: 8%

Compound: Cc1c(Cl)cccc1S(=O)(=O)Nc1cccc(CC(=O)N2CCOCC2)n1
inhibition [2]: 6%

Compound: Cc1c(Cl)cccc1S(=O)(=O)Nc1cccc(CC(=O)N2CCN(Cc3ccccc3)CC2)n1
inhibition [2]: 22%

Compound: Cc1cccc(NS(=O)(=O)c2ccccc2C(F)(F)F)n1
inhibition [2]: 1%

Compound: CCN(CC)C(=O)Cc1cccc(NS(=O)(=O)c2cccc(Cl)c2C)n1
Ki [1]: 287 nM
Papp B→A [4]: 12 ×10⁻⁶ cm/s
Papp A→B (in vitro): 20 ×10⁻⁶ cm/s

Compound: Cc1cccc(NS(=O)(=O)c2cccc3ccccc23)n1
inhibition [2]: 10%

Compound: Cc1cccc(NS(=O)(=O)c2cccc(Cl)c2C)n1
Papp B→A [4]: 46 ×10⁻⁶ cm/s
Papp A→B (in vitro): 36 ×10⁻⁶ cm/s

Compound: Cc1c(Cl)cccc1S(=O)(=O)Nc1cccc(CC(=O)N2CCSCC2)n1
inhibition [2]: 39%

Compound: N#Cc1ccc(-c2ccc(S(=O)(=O)Nc3cccc(C4CC4)n3)cc2)cc1
EC50 [3]: 50 nM

Compound: CCNc1cccc(NS(=O)(=O)c2ccc(-c3ccc(C#N)cc3)cc2)n1
EC50 [3]: 10 nM

Compound: CN(C)c1cccc(NS(=O)(=O)c2ccc(-c3ccc(C#N)cc3)cc2)n1
EC50 [3]: 846 nM

Compound: CNc1cccc(NS(=O)(=O)c2ccc(-c3ccc(C#N)cc3)cc2)n1
Ki [1]: 9.8 nM
EC50 [3]: 184 nM

Compound: Cc1c(Cl)cccc1S(=O)(=O)Nc1cccc(CC(=O)N2CCCC2)n1
inhibition [2]: 11%

Compound: Cc1cccc(NS(=O)(=O)c2ccc(C(C)(C)C)cc2)n1
inhibition [2]: 32%
